# Legend:
# receptor 5-HT4(a) = target: T1, receptor 5-HT4(a) (Homo sapiens, UniProt Q13639); assay: [3H]GR113808 radioligand binding, membranes of transiently transfected COS-7 cells; details: read-out: Ki, competition for [3H]GR113808 binding
# T1 construct: The entire coding region of the cDNAs of 5-HT4(a), 5-HT4(b), 5-HT4(c) and 5-T4(d) was subcloned; expressed in transfected cells; host or cells: COS-7 cells, transient, pRC/CMV vector
# Description: (§1) The entire coding region of the cDNAs of 5-HT4(a), 5-HT4(b), 5-HT4(c) and 5-T4(d) was subcloned into a mammalian expression vector pRC/CMV (Invitrogen, Carlsbad, Calif.). The transfections were carried out using polyethyleneimine (PEI) as described in Boussif et al. (1995). The cells were transfected using a mixture of DNA and of PEI in a ratio of 20 μmol of PEI/mg of DNA in 0.9% NaCl. For the radioligand binding assays, the COS-7 cells were seeded into culture flasks of 1.5×10^4 mm^2 one day before the transfection, at a density of 1×10^7 cells/flask, incubated for six hours with plasmid DNA (150 μg/flask) and collected 48 hours after transfection. For the measurement of cAMP formation, the COS-7 cells were seeded onto twelve-well plates one day before transfection, at a density of 5×10^5 cells/well, incubated for six hours with plasmid DNA (4 to 8 μg/well according to the experiments) and assayed 24 hours after the transfection. The cells transfected with the receptor 5-HT4 cDNA constructs were compared with the “blank”-transfected cells, which were exposed to the unmodified pRC/CMV plasmid.
# (§2) Each flask of cells intended for the radioligand binding assays was washed twice with a phosphate buffer (PBS). The cells were then scraped, collected and centrifuged at 300 g for five minutes. The pellet was resuspended in 2.5 ml of ice-cold HEPES buffer (50 mM, pH 7.4) and homogenized with an Ultraturax tissue grinder. The lysate was then centrifuged at 40,000 g for 20 minutes at 4° C. The resulting pellet was resuspended in 15 volumes of HEPES buffer (50 mM, pH 7.4). The membrane preparations were maintained in ice and used within two hours for radioligand binding assays. The protein concentrations were determined by the method of Lowry et al., 1951, using bovine serum albumin as standard.
# (§3) The saturation studies were performed using [^3H] GR113808 at 9 different concentrations ranging from 0.01 to 3.5 nM. The tubes were incubated at 25° C. for 30 minutes. The reaction-was stopped by rapid filtration, under vacuum, through Whatman GF/B filter paper using the Brandel 48R cell harvester. The filters were presoaked in a solution of PEI (0.1%) to reduce the binding to the filters. The filters were then washed with an ice-cold buffer (50 mM Tris-HCl, pH 7.4) and placed in 4 ml of “ready safe” scintillation cocktail (Beckman, Fullerton, Calif.) overnight. The radioactivity was measured using a Beckman LS 6500 C liquid scintillation counter. The binding data were analysed by computer-assisted nonlinear regression analysis (Graph Pad Prism Program, Graph Pad Software, Inc., San Diego, Calif.).
# (§4) The experiments correspond to the competition of various compounds for [^3H]GR113808 binding to membranes of transiently transfected COS-7 cells. […] The estimations of affinity are given as Ki values in nM, and are determined from IC50 values obtained by computer-assisted nonlinear curve analysis (GraphPad, Prism Software). The Ki values are representative of at least two determinations.
# receptor 5-HT4(b) = target: T2, receptor 5-HT4(b) (Homo sapiens, UniProt Q13639); assay: as above; details: read-out: Ki, competition for [3H]GR113808 binding
# T2 construct: The entire coding region of the cDNAs of 5-HT4(a), 5-HT4(b), 5-HT4(c) and 5-T4(d) was subcloned; expressed in transfected cells; host or cells: COS-7 cells, transient, pRC/CMV vector; cDNA amplified from human brain and ileum RNA
# Description: as §1, §2, §3, §4
# [1] = tested on: cells expressing the isoforms of the receptor 5-HT4; assay: cAMP formation in transiently transfected COS-7 cells, statement for all isoforms together; format: cell-based, human; details: preincubation with 1 μM prior to 5-HT, COS-7 cells expressing the isoforms
# Description: The entire coding region of the cDNAs of 5-HT4(a), 5-HT4(b), 5-HT4(c) and 5-T4(d) was subcloned into a mammalian expression vector pRC/CMV (Invitrogen, Carlsbad, Calif.). The transfections were carried out using polyethyleneimine (PEI) as described in Boussif et al. (1995). The cells were transfected using a mixture of DNA and of PEI in a ratio of 20 μmol of PEI/mg of DNA in 0.9% NaCl. […] The cells transfected with the receptor 5-HT4 cDNA constructs were compared with the “blank”-transfected cells, which were exposed to the unmodified pRC/CMV plasmid. […] The reaction was stopped by aspiration of the medium and addition of 500 μl of ice-cold ethanol. After one hour at room temperature, the cells were scraped, and everything was collected and freeze-dried. The pellet was resuspended in 350 μl of PBS and centrifuged for 5 min at 300 g. The cAMP was quantified in the supernatant using a radioimmunological assay (E.R.I.A. assay kit from Pasteur Diagnostics 79830). Student's t tests were carried out using the program Quick TEst.
# receptor 5-HT4(c) = receptor 5-HT4(c) (Homo sapiens, UniProt Q13639); assay: [3H]GR113808 radioligand binding, membranes of transiently transfected COS-7 cells; parameters: The entire coding region of the cDNAs of 5-HT4(a), 5-HT4(b), 5-HT4(c) and 5-T4(d) was subcloned; expressed in transfected cells; host or cells: COS-7 cells, transient, pRC/CMV vector; cDNA amplified from human brain and ileum RNA; details: read-out: Ki, competition for [3H]GR113808 binding
# Description: as §1, §2, §3, §4
# receptor 5-HT4(d) = receptor 5-HT4(d) (Homo sapiens, UniProt Q13639); assay: as above; parameters: The entire coding region of the cDNAs of 5-HT4(a), 5-HT4(b), 5-HT4(c) and 5-T4(d) was subcloned; expressed in transfected cells; host or cells: COS-7 cells, transient, pRC/CMV vector; cDNA amplified from human brain and ileum RNA; details: read-out: Ki, competition for [3H]GR113808 binding
# Description: as §1, §2, §3, §4
# Sequence of receptor 5-HT4(c) (Q13639 1-380 isoform Q13639-4): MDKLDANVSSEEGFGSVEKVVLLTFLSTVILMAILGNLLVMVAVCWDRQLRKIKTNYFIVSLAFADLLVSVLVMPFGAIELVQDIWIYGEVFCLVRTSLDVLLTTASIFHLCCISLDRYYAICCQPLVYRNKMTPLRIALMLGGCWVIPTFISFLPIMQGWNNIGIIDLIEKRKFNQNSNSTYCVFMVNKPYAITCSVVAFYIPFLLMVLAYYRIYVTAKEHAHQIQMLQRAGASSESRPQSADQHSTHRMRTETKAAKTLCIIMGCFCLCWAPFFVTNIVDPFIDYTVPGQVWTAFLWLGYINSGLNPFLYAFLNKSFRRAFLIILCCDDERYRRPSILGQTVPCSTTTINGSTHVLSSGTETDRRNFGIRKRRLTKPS
# T1 sequence (Q13639 1-387 isoform Q13639-2): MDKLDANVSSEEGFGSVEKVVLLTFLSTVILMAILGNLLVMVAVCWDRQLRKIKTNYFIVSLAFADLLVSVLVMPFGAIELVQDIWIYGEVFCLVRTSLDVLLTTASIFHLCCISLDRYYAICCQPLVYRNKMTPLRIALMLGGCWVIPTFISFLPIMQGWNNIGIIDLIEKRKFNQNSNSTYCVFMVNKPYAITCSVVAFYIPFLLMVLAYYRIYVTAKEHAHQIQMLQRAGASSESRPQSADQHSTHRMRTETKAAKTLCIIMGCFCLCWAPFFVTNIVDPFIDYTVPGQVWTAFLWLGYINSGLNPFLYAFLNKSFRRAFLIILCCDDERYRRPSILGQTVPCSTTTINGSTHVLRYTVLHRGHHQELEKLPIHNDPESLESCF
# Sequence of receptor 5-HT4(d) (Q13639 1-360 isoform Q13639-3): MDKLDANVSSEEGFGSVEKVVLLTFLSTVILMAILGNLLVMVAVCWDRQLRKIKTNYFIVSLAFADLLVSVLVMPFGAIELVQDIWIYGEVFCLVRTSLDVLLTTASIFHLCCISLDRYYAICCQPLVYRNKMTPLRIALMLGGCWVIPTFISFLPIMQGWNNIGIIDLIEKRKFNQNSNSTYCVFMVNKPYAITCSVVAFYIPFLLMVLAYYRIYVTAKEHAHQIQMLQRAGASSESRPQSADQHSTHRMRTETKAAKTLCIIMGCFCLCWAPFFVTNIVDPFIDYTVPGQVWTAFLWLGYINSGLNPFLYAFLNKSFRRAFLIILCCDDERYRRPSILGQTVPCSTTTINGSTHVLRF
# T2 sequence (Q13639 whole entry): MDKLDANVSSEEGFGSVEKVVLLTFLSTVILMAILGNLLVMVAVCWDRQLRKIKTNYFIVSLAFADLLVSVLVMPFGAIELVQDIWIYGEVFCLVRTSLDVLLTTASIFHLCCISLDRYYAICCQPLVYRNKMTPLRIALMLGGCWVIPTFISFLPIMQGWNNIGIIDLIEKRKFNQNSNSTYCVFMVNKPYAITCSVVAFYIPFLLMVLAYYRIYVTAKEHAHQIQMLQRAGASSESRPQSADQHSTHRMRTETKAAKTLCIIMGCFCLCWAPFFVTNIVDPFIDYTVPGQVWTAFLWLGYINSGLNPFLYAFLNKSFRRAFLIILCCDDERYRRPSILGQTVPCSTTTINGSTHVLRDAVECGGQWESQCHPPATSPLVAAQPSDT
smiles,measurement,setting,value
"COc1cc(N)c(Cl)cc1C(=O)OCCN1C[C@H](C)C[C@H](C)C1 [ML10375, 2-(cis-3,5-dimethyl-piperidino)ethyl 4-amino-5-chloro-2-methoxybenzoate]",Ki,receptor 5-HT4(a),0.56 ± 0.11 nM
same,Ki,receptor 5-HT4(b),1.62 ± 0.82 nM
same,antagonism of the capacity of 5-HT (1 μM) to increase basal cAMP levels,[1],antagonizes
same,Ki,receptor 5-HT4(c),0.61 ± 0.08 nM
same,Ki,receptor 5-HT4(d),0.41 ± 0.1 nM

# From US6506580B1, “Splice variants for human 5-HT4 serotonin receptor and their applications, in particular for screening” (Institut National de la Sante et de la Recherche Medicale …, priority 1997, dated 2003)
